Results published in ChEMBL document CHEMBL6078663, “Cyclopeptide Avellanins D-O with Antimalarial Activity from the Mariana Trench Anemone-Derived Hamigera ingelheimensis MSC5” (J Nat Prod, 2024).

tested on: Plasmodium falciparum; assay: Antimalarial activity against synchronous ring-stage Plasmodium falciparum 3D7 infected in erythrocytes incubated for 48 hrs by fluorescence based method; assay type: functional, organism-based; details: 3D7, Erythrocyte

Row | IC50 | Structure (SMILES)
1 | > 50 µM | C[C@H]1NC(=O)[C@@H](Cc2ccccc2)N(C)C(=O)[C@@H]2CCCN2C(=O)c2ccccc2NC(=O)[C@H](CCO)NC1=O
2 | 9.4 µM | C[C@H]1NC(=O)[C@@H](Cc2ccccc2)N(C)C(=O)[C@@H]2CCCN2C(=O)c2ccccc2NC(=O)[C@H](Cc2ccccc2)NC1=O
3 | 0.19 µM | C[C@H]1NC(=O)[C@@H](Cc2ccccc2)N(C)C(=O)[C@@H]2CCCN2C(=O)c2ccccc2NC(=O)[C@H](Cc2ccc(O)c(Cl)c2)NC1=O
4 | 3 µM | CN1C(=O)[C@@H]2CCCN2C(=O)c2ccccc2NC(=O)[C@H](Cc2ccccc2)NC(=O)CNC(=O)[C@H]1Cc1ccccc1
5 | 10 µM | C[C@H]1NC(=O)[C@@H](Cc2ccccc2)N(C)C(=O)[C@@H]2CCCN2C(=O)c2ccccc2NC(=O)[C@H](Cc2ccc(O)cc2)NC1=O
6 | 16 µM | CN1C(=O)[C@@H]2CCCN2C(=O)c2ccccc2NC(=O)[C@H](Cc2ccccc2)NC(=O)[C@@H](CO)NC(=O)[C@H]1Cc1ccccc1
